Measurements: PMC4357699, “Identification of a second GTP-bound magnesium ion in archaeal initiation factor 2” (Nucleic Acids Research, 2015)

What was measured:
Experiment in all cases: nitrocellulose filter binding of [3H]GDP
Details in all cases: read-out: apparent Kd
[1] = molecular target: T1, Ss-aIF2 (aIF2 heterotrimer, αβγ) (Saccharolobus solfataricus, UniProt Q980A5)
T1 construct: gene eif2g; full heterotrimer of α, β and γ subunits, purified; gamma from pET15b-Ss-aIF2γ; with Translation initiation factor 2 subunit alpha; Translation initiation factor 2 subunit beta

[2] = molecular target: T2, Ss-aIF2 (aIF2 heterotrimer, αβγ) (Saccharolobus solfataricus, UniProt Q980A5, H97A)
T2 construct: gene eif2g; full heterotrimer of α, β and γ subunits, purified; gamma from pET15b-Ss-aIF2γ; with Translation initiation factor 2 subunit alpha; Translation initiation factor 2 subunit beta

[3] = molecular target: T3, Ss-aIF2 (aIF2 heterotrimer, αβγ) (Saccharolobus solfataricus, UniProt Q980A5, D19A)
T3 construct: gene eif2g; full heterotrimer of α, β and γ subunits, purified; gamma from pET15b-Ss-aIF2γ; with Translation initiation factor 2 subunit alpha; Translation initiation factor 2 subunit beta
T3 sequence (Q97W59 whole entry): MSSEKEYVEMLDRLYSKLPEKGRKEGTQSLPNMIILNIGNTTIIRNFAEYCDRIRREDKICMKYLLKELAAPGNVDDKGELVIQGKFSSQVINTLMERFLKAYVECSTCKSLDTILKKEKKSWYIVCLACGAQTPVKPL
T3 sequence (Q97Z79 whole entry, further chain): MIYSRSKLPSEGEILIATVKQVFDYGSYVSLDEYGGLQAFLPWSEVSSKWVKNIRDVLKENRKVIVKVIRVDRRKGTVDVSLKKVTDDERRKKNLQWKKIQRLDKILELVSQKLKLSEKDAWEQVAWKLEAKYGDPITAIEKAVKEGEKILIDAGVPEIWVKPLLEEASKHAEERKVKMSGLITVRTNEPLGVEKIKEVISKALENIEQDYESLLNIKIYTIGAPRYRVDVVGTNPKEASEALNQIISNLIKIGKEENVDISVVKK
T3 sequence (Q980A5 whole entry D19A): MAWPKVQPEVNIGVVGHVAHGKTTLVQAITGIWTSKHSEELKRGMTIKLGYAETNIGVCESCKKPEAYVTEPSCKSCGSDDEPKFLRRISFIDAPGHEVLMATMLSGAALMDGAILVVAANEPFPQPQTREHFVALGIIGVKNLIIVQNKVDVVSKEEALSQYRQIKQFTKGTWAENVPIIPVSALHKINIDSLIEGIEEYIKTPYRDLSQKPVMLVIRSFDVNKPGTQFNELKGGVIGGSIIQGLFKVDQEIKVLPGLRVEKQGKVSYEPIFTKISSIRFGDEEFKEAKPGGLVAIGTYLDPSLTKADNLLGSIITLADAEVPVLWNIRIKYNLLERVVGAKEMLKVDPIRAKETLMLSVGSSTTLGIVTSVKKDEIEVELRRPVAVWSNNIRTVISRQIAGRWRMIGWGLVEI

T2 sequence (Q980A5 whole entry H97A): as the sequence (Q980A5 whole entry D19A) above, with A19D, H97A counted along it
T2 sequence (Q97W59 whole entry, further chain): as the sequence (Q97W59 whole entry) above
T2 sequence (Q97Z79 whole entry, further chain): as the sequence (Q97Z79 whole entry, further chain) above
T1 sequence (Q97Z79 whole entry): as the sequence (Q97Z79 whole entry, further chain) above
T1 sequence (Q97W59 whole entry, further chain): as the sequence (Q97W59 whole entry) above
T1 sequence (Q980A5 whole entry): as the sequence (Q980A5 whole entry D19A) above, with A19D counted along it

Kd [1]: 520 ± 120 nM
Kd [2]: 340 ± 100 nM
Kd [3]: 240 ± 100 nM
SMILES: Nc1nc2c(ncn2[C@@H]2O[C@H](COP(=O)(O)OP(=O)(O)O)[C@@H](O)[C@H]2O)c(=O)[nH]1 [GDP]
